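Grown in 96-well plates, cells were treated for 48 hours with each compound at five concentrations. Insufficient inhibition: endpoint recorded as highest concentration tested. TGI marks complete inhibition of growth.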
Columns and labels:
Experiment in all cases: DTP human tumour cell line panel, 48 h
PC-3 prostate = system: PC-3 prostate
A498 renal = system: A498 renal
BT-549 breast = system: BT-549 breast
MDA-N = system: MDA-N
EKVX NSCLC = system: EKVX NSCLC
HOP-92 NSCLC = system: HOP-92 NSCLC
ACHN renal = system: ACHN renal
M14 melanoma = system: M14 melanoma
OVCAR-3 ovarian = system: OVCAR-3 ovarian
A549 NSCLC = system: A549 NSCLC
SF-268 CNS = system: SF-268 CNS

Structure (SMILES) | TGI (PC-3 prostate) | TGI (A498 renal) | TGI (BT-549 breast) | TGI (MDA-N) | TGI (EKVX NSCLC) | TGI (HOP-92 NSCLC) | TGI (ACHN renal) | TGI (M14 melanoma) | TGI (OVCAR-3 ovarian) | TGI (A549 NSCLC) | TGI (SF-268 CNS)
O=c1[nH]nc(Cc2c[nH]c3ccccc23)o1 | > 100 µM | > 100 µM | > 100 µM | > 100 µM | > 100 µM | > 100 µM | > 100 µM | > 100 µM | > 100 µM | > 100 µM | > 100 µM
O=C1C2=C(CC3=C(C2)CS(=O)(=O)C3)C(=O)C2=C1CC1=C(C2)CS(=O)(=O)C1 | 51.6 µM | > 90.9 µM | 44.8 µM | 20.8 µM | > 62.7 µM | > 77.7 µM | > 66.2 µM | > 54.9 µM | 9.03 µM | > 100 µM | > 47.7 µM
CCCCCCCCCCCCCCCCCCNC(=S)/N=C\C1=C(O)c2ccccc2C1=O | 15.9 µM | 40 µM | 33.9 µM | 31.4 µM | 28 µM | 14.1 µM | 26.2 µM | 22 µM | 29.1 µM | 28 µM | 22.1 µM
N#Cc1c(N2CCC(O)C2)c2ccccc2n2c1nc1ccccc12 (stereo not given) | > 100 µM | 95.5 µM | > 100 µM | > 100 µM | > 100 µM | 95.7 µM | 42 µM | > 100 µM | > 100 µM | > 100 µM | > 100 µM
COc1ccc(/C=C2\CCS(=O)(=O)c3ccccc3C2=O)cc1 | 75.3 µM | 37.1 µM | 79.8 µM | 77.3 µM | 46.4 µM | 71.7 µM | 47.2 µM | > 100 µM | 93.8 µM | > 100 µM | 98.2 µM
CCOC(=O)C1(C(=O)OCC)OC(C)=NC1(C(=O)OC)C(=O)OC | > 100 µM | > 100 µM | > 31.6 µM | > 100 µM | > 100 µM | > 26.4 µM | > 100 µM | > 100 µM | > 100 µM | > 100 µM | > 100 µM
CC(C)=CC(Cc1ccccc1)S(=O)(=O)c1nc2ccccc2s1 (stereo not given) | 31.9 µM | 35.5 µM | 38.6 µM | 29.7 µM | 41.7 µM | 41.7 µM | 42.9 µM | 31.2 µM | 29.2 µM | 60.1 µM | 36.5 µM
CC(=O)OCC1OC(Nn2c(=O)[nH]c3ccccc3c2=O)C(OC(C)=O)C(OC(C)=O)C1OC(C)=O (stereo not given) | > 100 µM | > 100 µM | > 100 µM | > 100 µM | > 100 µM | > 100 µM | > 100 µM | > 100 µM | > 100 µM | > 100 µM | > 100 µM
O=C(Nc1ccc2[nH]c(C(=O)N3CC(CCl)c4c3cc([N+](=O)[O-])c3ccccc43)cc2c1)Nc1ccc2[nH]c(C(=O)N3CC(CCl)c4c3cc([N+](=O)[O-])c3ccccc43)cc2c1 (stereo not given) | > 100 µM | > 100 µM | > 100 µM | > 100 µM | > 100 µM | > 100 µM | > 100 µM | > 100 µM | > 100 µM | > 100 µM | > 100 µM
NCCCC[C@H](N)C(=O)Nc1ccc(-c2nc3ccccc3s2)cc1 | > 100 µM | 72.9 µM | 84.9 µM | 29 µM | 23.9 µM | > 100 µM | 55 µM | 25.1 µM | 37.2 µM | > 100 µM | 55.6 µM
COc1ccccc1C1ON=C(c2ccc([N+](=O)[O-])cc2)N1C12CC3CC(CC(C3)C1)C2 (stereo not given) | > 100 µM | > 100 µM | > 100 µM | > 100 µM | > 100 µM | > 100 µM | > 100 µM | > 100 µM | > 100 µM | > 100 µM | > 100 µM
CS(=O)(=O)c1ccc(N=C/C=C/Nc2ccc(S(C)(=O)=O)cc2)cc1 | > 100 µM | > 100 µM | > 100 µM | > 100 µM | > 100 µM | > 100 µM | > 100 µM | > 100 µM | > 100 µM | > 100 µM | > 100 µM
COC(=O)c1cc(C(=CCC[C@H]2CC[C@@]3(C)C(CCC4C3CC[C@@]3(C)C4CC[C@@H]3C(C)CCCC(C)C)C2)c2cc(Cl)c(O)c(C(=O)OC)c2)cc(Cl)c1O (stereo not given in full) | > 10 µM | – | > 10 µM | > 10 µM | > 10 µM | > 10 µM | > 10 µM | > 10 µM | > 10 µM | > 10 µM | > 10 µM
CC(C)NC(=O)N(Nc1ccccc1)C(C)(C)C | > 100 µM | > 100 µM | > 100 µM | > 100 µM | > 100 µM | > 100 µM | > 100 µM | > 100 µM | > 100 µM | > 100 µM | –
Cc1c2c(c(O)c3c(O)cccc13)C(=O)C1(O)C(O)=C(C(=O)NCNc3ccc(C(N)=O)cn3)C(=O)C(N(C)C)C1C2 (stereo not given) | 30.7 µM | 9.33 µM | 15.5 µM | 98.5 µM | > 100 µM | 6.92 µM | – | > 100 µM | 6.84 µM | 23 µM | 79.7 µM
Cc1ccc(O)c(C2=CC(c3cccc(Cl)c3)SC(N)=N2)c1 (stereo not given) | 73.6 µM | – | 85 µM | 39.7 µM | 61.8 µM | 42.9 µM | 54.4 µM | 68.3 µM | 90.1 µM | 62.9 µM | > 100 µM
COC1CN(C)C(=Nc2cccc3ccccc23)S1 (stereo not given) | > 10 µM | – | > 10 µM | > 10 µM | – | > 10 µM | > 10 µM | > 10 µM | – | > 10 µM | > 10 µM
O=C(O)CCSCc1ccccc1 | > 100 µM | > 100 µM | > 100 µM | > 100 µM | > 100 µM | – | > 100 µM | > 100 µM | > 100 µM | > 100 µM | > 100 µM
COC(O)C(=O)c1ccc2c(c1)CC1(C2)Cc2cc3c(cc2C1=O)CCC3 (stereo not given) | 30.8 µM | 37.1 µM | 31.8 µM | 42.3 µM | 45.7 µM | – | 30.6 µM | 35.9 µM | 34.5 µM | 47.4 µM | 43.3 µM
Cc1ccc(S(=O)(=O)Oc2nc3ccccc3nc2OS(=O)(=O)c2ccc(C)cc2)cc1 | > 100 µM | > 100 µM | > 100 µM | > 100 µM | > 100 µM | – | > 100 µM | > 100 µM | > 100 µM | > 100 µM | > 100 µM

From PubChem BioAssay (NCI)
